Assay results: patent publication US5800838A, “Composition that inhibits or destroys at least one unicellular living organism containing fluorine F- and Lithium li+” (priority 1987, dated 1998)
Like-named read-outs stand apart in the source and are kept apart here.

Experiments:
Pseudomonas aeruginosa [1] = test: MIC of antibiotics by microdilution in liquid medium on plates (Example 18); type: cell-based; conditions: Pseudomonas aeruginosa
Method: The unicellular living organism chosen for the trials is Pseudomonas aeruginosa (wild-type strain originating from hospital sources).
The same methodology as for Examples 11 and 12 was follows. Bacteriostatic analyses were performed with a number of antibiotics belonging to benzylpenicillins, and aminopenicillins, and first and second generation cephalosporins, namely:
The determination of the MIC was carried out by the microdilution method in liquid medium on plates. Aqueous solutions of each antibiotic are prepared in MUELLER HINION broth, to obtain dilutions in a geometric ratio of 2. The solvent is sterile double-distilled water.
The preparation of the bacterial inoculum is made with a culture of Pseudomonas aeruginosa, with agitation on a water bath at 37° C. for 4 to 6 hours, giving 10^6 bacteria/ml.
Three trials were performed per antibiotic and per bacterial inoculum. The trials were performed first with the antibiotics alone (trials a).sctn., and then with the addition of a dose of 1 mg/l of an aqueous solution of lithium fluoride (trials b).sctn. to the dilution of each one in every cup of every plate.

Pseudomonas aeruginosa [2] = test: Resistance of Pseudomonas aeruginosa to antiseptics in terms of water hardness and proteins; type: cell-based;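 also: R means colony growth observed and S means no significant growth; key: R: resistant (a growth of colonies was observed); S: sensitive (no significant growth was observed)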
Method: The resistance of Pseudomonas aeruginosa to various reputedly bactericidal active principles or commercial antiseptics was studied in terms of the hardness of the water and the presence or absence of proteins. The same trial was carried out on the foaming paste according to the invention (see Example 15).

[3] = + LiF 1 mg/l, strain lic R βLac^+ OXA, read-out: MIC (average MIC value)
[4] = + LiF 1 mg/l, strain lic R βLac^+ PSE, read-out: MIC (average MIC value)
[5] = + LiF 1 mg/l, strain lic R βLac^+ TEM, read-out: MIC (average MIC value)
[6] = + LiF 1 mg/l, strain lic R βLac^+ cephalosporinase, read-out: MIC (average MIC value)
[7] = + LiF 1 mg/l, strain lic S βLac^- (first column), read-out: MIC (average MIC value)
[8] = + LiF 1 mg/l, strain lic S βLac^- (second column), read-out: MIC (average MIC value)
[9] = alone, strain lic R βLac^+ OXA, read-out: MIC (average MIC value)
[10] = alone, strain lic R βLac^+ PSE, read-out: MIC (average MIC value)
[11] = alone, strain lic R βLac^+ TEM, read-out: MIC (average MIC value)
[12] = alone, strain lic R βLac^+ cephalosporinase, read-out: MIC (average MIC value)
[13] = alone, strain lic S βLac^- (first column), read-out: MIC (average MIC value)
[14] = alone, strain lic S βLac^- (second column), read-out: MIC (average MIC value)

`CC1(C)S[C@@H]2[C@H](NC(=O)[C@H](NC(=O)c3cnc4cccnc4c3O)c3ccccc3)C(=O)N2[C@H]1C(=O)O` [APALCILLIN, apalcillin] gave an MIC (Pseudomonas aeruginosa [1]; [3]) of 32 µg/mL, an MIC (Pseudomonas aeruginosa [1]; [4]) of 32 µg/mL and an MIC (Pseudomonas aeruginosa [1]; [5]) of 8 µg/mL. It also gave an MIC (Pseudomonas aeruginosa [1]; [6]) of 16 µg/mL, an MIC (Pseudomonas aeruginosa [1]; [7]) of 2 µg/mL and an MIC (Pseudomonas aeruginosa [1]; [8]) of 8 µg/mL. It also gave an MIC (Pseudomonas aeruginosa [1]; [9]) of 32 µg/mL, an MIC (Pseudomonas aeruginosa [1]; [10]) of 64 µg/mL and an MIC (Pseudomonas aeruginosa [1]; [11]) of 16 µg/mL. It also gave an MIC (Pseudomonas aeruginosa [1]; [12]) of 16 µg/mL, an MIC (Pseudomonas aeruginosa [1]; [13]) of 4 µg/mL and an MIC (Pseudomonas aeruginosa [1]; [14]) of 16 µg/mL.

Work on `CC1(C)S[C@@H]2[C@H](NC(=O)[C@H](NC(=O)N3CCNC3=O)c3ccccc3)C(=O)N2[C@H]1C(=O)O` [AZLOCILLIN, azlocillin] yielded an MIC (Pseudomonas aeruginosa [1]; [3]) of 64 µg/mL, an MIC (Pseudomonas aeruginosa [1]; [4]) of 64 µg/mL and an MIC (Pseudomonas aeruginosa [1]; [5]) of 64 µg/mL. For the same molecule, the MIC (Pseudomonas aeruginosa [1]; [6]) was 128 µg/mL, the MIC (Pseudomonas aeruginosa [1]; [7]) was 4 µg/mL and the MIC (Pseudomonas aeruginosa [1]; [8]) was 32 µg/mL. For the same molecule, the MIC (Pseudomonas aeruginosa [1]; [9]) was 64 µg/mL, the MIC (Pseudomonas aeruginosa [1]; [10]) was 64 µg/mL and the MIC (Pseudomonas aeruginosa [1]; [11]) was 64 µg/mL. For the same molecule, the MIC (Pseudomonas aeruginosa [1]; [12]) was 128 µg/mL, the MIC (Pseudomonas aeruginosa [1]; [13]) was 8 µg/mL and the MIC (Pseudomonas aeruginosa [1]; [14]) was 32 µg/mL.

Work on `CC(C)(O/N=C(\C(=O)N[C@@H]1C(=O)N2C(C(=O)[O-])=C(C[n+]3ccccc3)CS[C@H]12)c1csc(N)n1)C(=O)O` [CAFTAZIDIME, ceftazidime] yielded an MIC (Pseudomonas aeruginosa [1]; read-out: MIC (average MIC value), + LiF 1 mg/l, strain lic R βLac^+ OXA) of 4 µg/mL, an MIC (Pseudomonas aeruginosa [1]; read-out: MIC (average MIC value), + LiF 1 mg/l, strain lic R βLac^+ PSE) of 2 µg/mL and an MIC (Pseudomonas aeruginosa [1]; read-out: MIC (average MIC value), + LiF 1 mg/l, strain lic R βLac^+ TEM) of 4 µg/mL. It also gave an MIC (Pseudomonas aeruginosa [1]; read-out: MIC (average MIC value), + LiF 1 mg/l, strain lic R βLac^+ cephalosporinase) of 32 µg/mL, an MIC (Pseudomonas aeruginosa [1]; read-out: MIC (average MIC value), + LiF 1 mg/l, strain lic S βLac^- (first column)) of 2 µg/mL and an MIC (Pseudomonas aeruginosa [1]; read-out: MIC (average MIC value), + LiF 1 mg/l, strain lic S βLac^- (second column)) of 4 µg/mL. It also gave an MIC (Pseudomonas aeruginosa [1]; read-out: MIC (average MIC value), alone, strain lic R βLac^+ OXA) of 4 µg/mL, an MIC (Pseudomonas aeruginosa [1]; read-out: MIC (average MIC value), alone, strain lic R βLac^+ PSE) of 2 µg/mL and an MIC (Pseudomonas aeruginosa [1]; read-out: MIC (average MIC value), alone, strain lic R βLac^+ TEM) of 4 µg/mL. It also gave an MIC (Pseudomonas aeruginosa [1]; read-out: MIC (average MIC value), alone, strain lic R βLac^+ cephalosporinase) of 32 µg/mL, an MIC (Pseudomonas aeruginosa [1]; read-out: MIC (average MIC value), alone, strain lic S βLac^- (first column)) of 4 µg/mL and an MIC (Pseudomonas aeruginosa [1]; read-out: MIC (average MIC value), alone, strain lic S βLac^- (second column)) of 4 µg/mL.

Work on `NC(=O)c1cc[n+](CC2=C(C(=O)O)N3C(=O)[C@@H](NC(=O)[C@@H](c4ccccc4)S(=O)(=O)[O-])[C@H]3SC2)cc1` [CEFSULODIN, cefsulodin] yielded an MIC (Pseudomonas aeruginosa [1]; [3]) of 16 µg/mL, an MIC (Pseudomonas aeruginosa [1]; [4]) of 16 µg/mL and an MIC (Pseudomonas aeruginosa [1]; [5]) of 32 µg/mL. The MIC (Pseudomonas aeruginosa [1]; [6]) was 64 µg/mL, the MIC (Pseudomonas aeruginosa [1]; [7]) was 4 µg/mL and the MIC (Pseudomonas aeruginosa [1]; [8]) was 16 µg/mL. The MIC (Pseudomonas aeruginosa [1]; [9]) was 16 µg/mL, the MIC (Pseudomonas aeruginosa [1]; [10]) was 32 µg/mL and the MIC (Pseudomonas aeruginosa [1]; [11]) was 32 µg/mL. It also gave an MIC (Pseudomonas aeruginosa [1]; [12]) of 64 µg/mL, an MIC (Pseudomonas aeruginosa [1]; [13]) of 4 µg/mL and an MIC (Pseudomonas aeruginosa [1]; [14]) of 16 µg/mL.

With `CO/N=C(\C(=O)N[C@@H]1C(=O)N2C(C(=O)O)=C(CSc3nc(=O)c(=O)[nH]n3C)CS[C@H]12)c1csc(N)n1` [CEFTRIAXONE, ceftriaxone] the MIC (Pseudomonas aeruginosa [1]; [3]) was 32 µg/mL, the MIC (Pseudomonas aeruginosa [1]; [4]) was 16 µg/mL and the MIC (Pseudomonas aeruginosa [1]; [5]) was 32 µg/mL. It also gave an MIC (Pseudomonas aeruginosa [1]; [6]) of 128 µg/mL, an MIC (Pseudomonas aeruginosa [1]; [7]) of 8 µg/mL and an MIC (Pseudomonas aeruginosa [1]; [8]) of 16 µg/mL. The MIC (Pseudomonas aeruginosa [1]; [9]) was 32 µg/mL, the MIC (Pseudomonas aeruginosa [1]; [10]) was 32 µg/mL and the MIC (Pseudomonas aeruginosa [1]; [11]) was 32 µg/mL. For the same molecule, the MIC (Pseudomonas aeruginosa [1]; [12]) was 256 µg/mL, the MIC (Pseudomonas aeruginosa [1]; [13]) was 16 µg/mL and the MIC (Pseudomonas aeruginosa [1]; [14]) was 32 µg/mL.

For `C=O` [Formaldehyde], the resistance (Pseudomonas aeruginosa [2]; 0.2 ml inoculum, contact time 10 mn, distilled water, P+) was “S”, the resistance (Pseudomonas aeruginosa [2]; 0.2 ml inoculum, contact time 10 mn, distilled water, P-) was “S” and the resistance (Pseudomonas aeruginosa [2]; 0.2 ml inoculum, contact time 10 mn, hard water, P+) was “S”. The resistance (Pseudomonas aeruginosa [2]; 0.2 ml inoculum, contact time 10 mn, hard water, P-) was “S”, the resistance (Pseudomonas aeruginosa [2]; 0.4 ml inoculum, contact time 20 mn, distilled water, P+) was “S” and the resistance (Pseudomonas aeruginosa [2]; 0.4 ml inoculum, contact time 20 mn, distilled water, P-) was “S”. The resistance (Pseudomonas aeruginosa [2]; 0.4 ml inoculum, contact time 20 mn, hard water, P+) was “S”, the resistance (Pseudomonas aeruginosa [2]; 0.4 ml inoculum, contact time 20 mn, hard water, P-) was “S” and the resistance (Pseudomonas aeruginosa [2]; 0.6 ml inoculum, contact time 30 mn, distilled water, P+) was “S”. The resistance (Pseudomonas aeruginosa [2]; 0.6 ml inoculum, contact time 30 mn, distilled water, P-) was “S”, the resistance (Pseudomonas aeruginosa [2]; 0.6 ml inoculum, contact time 30 mn, hard water, P+) was “S” and the resistance (Pseudomonas aeruginosa [2]; 0.6 ml inoculum, contact time 30 mn, hard water, P-) was “S”.
